Source: PMC5128747, “Biscogniauxone, a New Isopyrrolonaphthoquinone Compound from the Fungus Biscogniauxia mediterranea Isolated from Deep-Sea Sediments” (Marine Drugs, 2016)
Converted amounts (≈) assume the structure as drawn. “And” between values parts separate entries of the source, which are not always exact repeats. Identical values can stand only once. Like-named read-outs stand apart in the source and are kept apart here. Where a SMILES comes first, the peptide text is derived from it.

Experiments:
[1] = target: T1, glycogen synthase kinase (GSK-3β) (Homo sapiens, UniProt P49841); test: Inhibition of glycogen synthase kinase (GSK-3β); type: biochemical; conditions: concentrations 0.1 μM to 50 μM analyzed twice in duplicates
Protocol: (§1) The phytopathogenic fungus Septoria tritici and the dermatophytic fungus Trichophyton rubrum as well as the cytotoxic effect on the human hepatocellular liver carcinoma cell line HepG2 were tested according to Jansen et al.. Inhibition of the enzymes glycogen synthase kinase (GSK-3β), acetylcholinesterase (AchE), phosphodiesterase (PDE-4B2), and protein tyrosine phosphatase (PTP1B) was determined according to Baki et al., Ohlendorf et al., Schulz et al., and Silber et al., respectively. The concentration of the compounds used in the initial bioassays was 100 μM (antibiotic tests), 50 μM (cytotoxic tests), and 10 μM (enzymatic tests).

[2] = tested on: methicillin-resistant Staphylococcus aureus (MRSA) (DSM 18827); test: Antibacterial growth inhibition, MRSA; type: cell-based; conditions: very weak inhibition, in the range of
[3] = tested on: Staphylococcus epidermidis (DSM 20044); test: Antibacterial growth inhibition, Staphylococcus epidermidis; type: cell-based; conditions: DSM20044, very weak inhibition, in the range of
Protocol: as §1, with “The antimicrobial activities of compounds 1 and 2 against the bacteria Bacillus subtilis as well as the human pathogenic yeast Candida albicans (DSM 1386) were determined according to Ohlendorf et al.. The bioassays with the clinically relevant bacterial strains Staphylococcus epidermidis (DSM 20044), methicillin-resistant Staphylococcus aureus (MRSA) (DSM 18827), and the causative agent of acne, Propionibacterium acnes (DSM 1897^T), were performed as described by Silber et al.. The phytopathogenic” for “The phytopathogenic”, “(enzymatic tests). […]” for “(enzymatic tests).”

Trichophyton rubrum = test: Antifungal growth inhibition, Trichophyton rubrum; type: cell-based; conditions: in the same concentration range (IC50 in the range of 100 μM)
Protocol: as §1, with “The antimicrobial activities of compounds 1 and 2 against the bacteria Bacillus subtilis as well as the human pathogenic yeast Candida albicans (DSM 1386) were determined according to Ohlendorf et al.. The bioassays with the clinically relevant bacterial strains Staphylococcus epidermidis (DSM 20044), methicillin-resistant Staphylococcus aureus (MRSA) (DSM 18827), and the causative agent of acne, Propionibacterium acnes (DSM 1897^T), were performed as described by Silber et al.. The phytopathogenic” for “The phytopathogenic”, “(enzymatic tests). […]” for “(enzymatic tests).”

Septoria tritici = test: Antifungal growth inhibition, Septoria tritici; type: cell-based; conditions: in the same concentration range (IC50 in the range of 100 μM)
Protocol: as §1, with “The antimicrobial activities of compounds 1 and 2 against the bacteria Bacillus subtilis as well as the human pathogenic yeast Candida albicans (DSM 1386) were determined according to Ohlendorf et al.. The bioassays with the clinically relevant bacterial strains Staphylococcus epidermidis (DSM 20044), methicillin-resistant Staphylococcus aureus (MRSA) (DSM 18827), and the causative agent of acne, Propionibacterium acnes (DSM 1897^T), were performed as described by Silber et al.. The phytopathogenic” for “The phytopathogenic”, “(enzymatic tests). […]” for “(enzymatic tests).”

[4] = target: acetylcholinesterase (AchE) (Homo sapiens, UniProt P22303); test: Inhibition of acetylcholinesterase (AchE); type: biochemical
Protocol: as §1

[5] = target: T1, glycogen synthase kinase (GSK-3β); set-up: method as in PMID 24045329; conditions: read-out: IC50, inhibition of GSK-3β; cited from earlier work

T1 sequence (P49841 whole entry): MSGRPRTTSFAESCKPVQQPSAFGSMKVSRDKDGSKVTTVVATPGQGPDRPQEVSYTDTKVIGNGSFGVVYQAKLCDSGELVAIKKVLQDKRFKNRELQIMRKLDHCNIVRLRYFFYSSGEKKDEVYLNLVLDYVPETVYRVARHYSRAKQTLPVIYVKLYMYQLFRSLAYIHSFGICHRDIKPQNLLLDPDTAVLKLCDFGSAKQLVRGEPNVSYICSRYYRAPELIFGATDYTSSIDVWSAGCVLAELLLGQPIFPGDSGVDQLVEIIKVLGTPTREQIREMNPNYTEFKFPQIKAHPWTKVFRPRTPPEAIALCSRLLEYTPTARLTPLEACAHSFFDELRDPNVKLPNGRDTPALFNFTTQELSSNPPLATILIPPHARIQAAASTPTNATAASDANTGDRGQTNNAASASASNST
Sequence of acetylcholinesterase (AchE) (P22303 32-614): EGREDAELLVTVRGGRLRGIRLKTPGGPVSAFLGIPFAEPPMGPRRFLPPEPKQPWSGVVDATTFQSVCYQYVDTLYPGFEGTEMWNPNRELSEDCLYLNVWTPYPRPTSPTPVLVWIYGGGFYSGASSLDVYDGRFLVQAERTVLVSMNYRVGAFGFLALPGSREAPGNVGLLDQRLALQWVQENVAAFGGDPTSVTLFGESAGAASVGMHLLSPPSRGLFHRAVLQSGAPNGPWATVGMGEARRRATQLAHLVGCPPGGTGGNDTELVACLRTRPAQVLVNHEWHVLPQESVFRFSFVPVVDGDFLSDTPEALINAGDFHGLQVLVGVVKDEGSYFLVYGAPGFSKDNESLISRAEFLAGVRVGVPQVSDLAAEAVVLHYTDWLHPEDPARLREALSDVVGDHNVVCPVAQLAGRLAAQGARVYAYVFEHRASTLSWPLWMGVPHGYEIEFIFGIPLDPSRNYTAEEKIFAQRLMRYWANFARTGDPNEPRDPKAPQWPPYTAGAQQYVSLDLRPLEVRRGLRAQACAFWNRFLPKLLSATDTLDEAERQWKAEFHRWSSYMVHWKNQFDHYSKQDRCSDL

O=C1c2c[nH]cc2C(=O)c2c(O)cc(O)cc21 [Compound 1, biscogniauxone]
IC50 [1]: 8.04 µM and 8 µM | IC50 [2]: ~100 µM | IC50 [3]: ~100 µM

COc1cc(O)c2c(c1C)C[C@H](C)OC2=O [Compound 2, 6-methoxy-5-methyl mellein]
inhibition of Trichophyton rubrum (Trichophyton rubrum): weakly inhibited | inhibition of Septoria tritici (Septoria tritici): weakly inhibited

CC(C)C[C@@H]1NC(=O)[C@H](CC(C)C)NC(=O)[C@H](C(C)C)NC(=O)[C@H](CC(C)C)NC(=O)[C@H](Cc2ccccc2)NC1=O [Compound 3, cyclo-(L-Phe-L-Leu-L-Val-L-Leu-L-Leu)] (cyclo(FLVLL))
minimal inhibition concentration (MIC), inhibitory effect on AchE [4]: 5.87 µM (≈ 3.44 µg/mL)

bhimamycin H
IC50 [5]: 18 µM
